# Assay results from EP1198478B1, “SOMATOSTATIN ANALOGS AND THEIR USE FOR THE TREATMENT OF CANCER” (Dabur Research Foundation, priority 2000, dated 2002).
# Values joined by “and” are separate entries in the source; they are usually repeats but may differ in a detail not shown here. Identical values can stand only once.
# What was measured:
# [1] = test system: HeP2 (Laryngeal); experiment: MTT cytotoxicity assay, HeP2 cells; assay type: cell-based; conditions: 48 hours
# Description: (§1) The cytotoxic effect of peptides SEQ ID NO: 2, SEQ ID NO: 3, SEQ ID NO: 6, and SEQ ID NO: 9, was studied by MTT assay which is based on the principle of uptake of MTT [3-[4,5-dimethylthiazol-2-yl]-2,5-diphenyl tetrazolium bromide], a tetrazolium salt by the metabolically active cells where it is metabolized by active mitochondria into a blue colored formazan product which can be read spectrophotometrically. Briefly, tumor cells PTC (primary human colon cancer cell line), KB (Oral squamous), U87MG (Glioblastoma), HBL100 (Breast), HeP2 (Laryngeal), ECV304 (Endothelial), PA-1 (Ovary) and L132 (Lung) were incubated with the peptide analogs for 48 hours at 37°C in a 96-well culture plate, followed by the addition of 100 µg MTT and further incubation of 1 hour. The formazan crystals formed inside the cells were dissolved with a detergent comprising 10% Sodium dodecyl sulfate and 0.01 N HCl and optical density read on a multiscan ELISA reader. The optical density was directly proportional to the number of proliferating and metabolically active cells.
# [2] = test system: human colon adenocarcinoma (PTC) xenografts; experiment: In vivo antitumor activity on primary tumor (colon) xenografted mice; design: species or system Balb/c athymic mice; conditions: for tumor volumes, Avg: average of three animals; for tumor volumes of individual tumor bearing animals: individual animals (IV, V, VI for SEQ ID NO: 2; I, II, III for SEQ ID NO: 3); for percentage inhibition of tumor growth: as compared to controls, (1-tumor volume-treated/tumor volume control)* 100
# Protocol: The antitumor activity of SEQ ID NO:2 and SEQ ID NO:3 was studied in human colon adenocarcinoma (PTC) xenografts in nude mice. PTC tumor xenografts were grown in Balb/c athymic mice by subcutaneous inoculation of a single cell suspension of PTC cells (15 X10^6 cells/ 100µl). The tumor bearing animals were divided into 3 groups of three animals each including one group comprising untreated control animals. Treatment with novel somatostatin analogs was initiated when the average tumor volumes, as measured using a vernier caliper, were between 400-800 mm^3. Solutions of SEQ ID NO:2 and SEQ ID NO:3 were prepared at a concentration of 85 µg/ml and intravenously administered to the assigned group of tumor bearing animals at a dose of 8.5 µg/100 µl twice a day so that the total dose of […] was administered to each animal. The treatment was continued for a period of 10 days.
# The antitumor activity of the compounds was monitored by measuring tumor volumes every fourth day using the formula W*W*L*.04 (W = smaller diameter, L = larger diameter). The percentage inhibition of tumor growth was calculated using the formula (1-tumor volume-treated/tumor volume control)* 100.
# [3] = test system: PA-1 (Ovary); experiment: MTT cytotoxicity assay, PA-1 cells; assay type: cell-based; conditions: 48 hours
# Description: as §1
# [4] = test system: L132 (Lung); experiment: MTT cytotoxicity assay, L132 cells; assay type: cell-based; conditions: 48 hours
# Description: as §1
# [5] = test system: KB (Oral squamous); experiment: MTT cytotoxicity assay, KB cells; assay type: cell-based; conditions: 48 hours
# Description: as §1
# [6] = test system: ECV304 (Endothelial); experiment: MTT cytotoxicity assay, ECV304 cells; assay type: cell-based; conditions: 48 hours
# Description: as §1
# [7] = test system: HBL100 (Breast); experiment: MTT cytotoxicity assay, HBL100 cells; assay type: cell-based; conditions: 48 hours
# Description: as §1
# [8] = test system: U87MG (Glioblastoma); experiment: MTT cytotoxicity assay, U87MG cells; assay type: cell-based; conditions: 48 hours
# Description: as §1
# [9] = test system: PTC (primary human colon cancer cell line); experiment: MTT cytotoxicity assay, PTC cells; assay type: cell-based; conditions: 48 hours
# Description: as §1
# [10] = day 9, intravenously 8.5 µg/100 µl twice a day, 10 days
# [11] = day 13, intravenously 8.5 µg/100 µl twice a day, 10 days
# [12] = day 18, intravenously 8.5 µg/100 µl twice a day, 10 days
# [13] = day 21, intravenously 8.5 µg/100 µl twice a day, 10 days
substance,measurement,setting,value
D-Phe-Cys-Tyr-D-Trp-Orn-Deg-Pen-Thr-NH2 [SEQ ID NO: 2],Percentage cytotoxicity,[1]; 1nM,14.9 ± 3.2%
same,Percentage cytotoxicity,[1]; 10 nM,29.7 ± 4.4%
same,Percentage cytotoxicity,[1]; 1µM,10.0 ± 2.4%
same,Percentage cytotoxicity,[1]; 100n M,13.0 ± 3.5%
same,"tumor volumes, Avg","[2]; day 0, before treatment",0 mm^3
same,tumor volumes of individual tumor bearing animals,"[2]; day 0, before treatment",0 mm^3
same,"tumor volumes, Avg",[2]; [10],654 mm^3
same,tumor volumes of individual tumor bearing animals,[2]; [10],480 mm^3 and 678 mm^3 and 806 mm^3
same,"tumor volumes, Avg",[2]; [11],1927 mm^3
same,tumor volumes of individual tumor bearing animals,[2]; [11],1254 mm^3 and 2196 mm^3 and 2333 mm^3
same,"tumor volumes, Avg",[2]; [12],3886 mm^3
same,tumor volumes of individual tumor bearing animals,[2]; [12],1965 mm^3 and 5240 mm^3 and 4453 mm^3
same,percentage inhibition of tumor growth,[2]; [13],57.1%
same,"tumor volumes, Avg",[2]; [13],3860 mm^3
same,tumor volumes of individual tumor bearing animals,[2]; [13],491 mm^3 and 4839 mm^3 and 6250 mm^3
same,Percentage cytotoxicity,[3]; 1nM,29.5 ± 24%
same,Percentage cytotoxicity,[3]; 10 nM,27.9 ± 3.4%
same,Percentage cytotoxicity,[3]; 1µM,12.8 ± 3.3%
same,Percentage cytotoxicity,[3]; 100n M,22.9 ± 2.3%
same,Percentage cytotoxicity,[4]; 1nM,12.7 ± 2.9%
same,Percentage cytotoxicity,[4]; 10 nM,23.4 ± 4.2%
same,Percentage cytotoxicity,[4]; 1µM,17.7 ± 5.5%
same,Percentage cytotoxicity,[4]; 100n M,22.8 ± 4.6%
same,Percentage cytotoxicity,[5]; 1nM,28.0 ± 3.2%
same,Percentage cytotoxicity,[5]; 10 nM,34.9 ± 4.6%
same,Percentage cytotoxicity,[5]; 1µM,12.0 ± 4.3%
same,Percentage cytotoxicity,[5]; 100n M,19.0 ± 5.2%
same,Percentage cytotoxicity,[6]; 1nM,22.8 ± 3.9%
same,Percentage cytotoxicity,[6]; 10 nM,19.8 ± 3.3%
same,Percentage cytotoxicity,[6]; 1µM,6.0 ± 2.9%
same,Percentage cytotoxicity,[6]; 100n M,14.9 ± 2.9%
same,Percentage cytotoxicity,[7]; 1nM,19.4 ± 4.5%
same,Percentage cytotoxicity,[7]; 10 nM,22.8 ± 1.8%
same,Percentage cytotoxicity,[7]; 1µM,10.6 ± 1.4%
same,Percentage cytotoxicity,[7]; 100n M,15.7 ± 3.5%
same,Percentage cytotoxicity,[8]; 1nM,22.8 ± 3.5%
same,Percentage cytotoxicity,[8]; 10 nM,41.9 ± 2.4%
same,Percentage cytotoxicity,[8]; 1µM,33.9 ± 1.2%
same,Percentage cytotoxicity,[8]; 100n M,39.5 ± 1.4%
same,Percentage cytotoxicity,[9]; 1nM,40 ± 0.5%
same,Percentage cytotoxicity,[9]; 10 nM,14 ± 2.9%
same,Percentage cytotoxicity,[9]; 1µM,9.0 ± 3.2%
same,Percentage cytotoxicity,[9]; 100n M,20 ± 1.5%
D-Phe-Cys-Tyr-D-Trp-Orn-Ac5c-Pen-Thr-NH2 [SEQ ID NO: 3],Percentage cytotoxicity,[1]; 1nM,13.9 ± 3.6%
same,Percentage cytotoxicity,[1]; 10 nM,26.8 ± 4.4%
same,Percentage cytotoxicity,[1]; 1µM,10.0 ± 2.4%
same,Percentage cytotoxicity,[1]; 100n M,25.8 ± 2.5%
same,"tumor volumes, Avg","[2]; day 0, before treatment",0 mm^3
same,tumor volumes of individual tumor bearing animals,"[2]; day 0, before treatment",0 mm^3
same,"tumor volumes, Avg",[2]; [10],552 mm^3
same,tumor volumes of individual tumor bearing animals,[2]; [10],560 mm^3 and 774 mm^3 and 324 mm^3
same,"tumor volumes, Avg",[2]; [11],1758 mm^3
same,tumor volumes of individual tumor bearing animals,[2]; [11],1946 mm^3 and 1800 mm^3 and 1530 mm^3
same,"tumor volumes, Avg",[2]; [12],3674 mm^3
same,tumor volumes of individual tumor bearing animals,[2]; [12],3177 mm^3 and 3610 mm^3 and 4234 mm^3
same,percentage inhibition of tumor growth,[2]; [13],54.7%
same,"tumor volumes, Avg",[2]; [13],4080 mm^3
same,tumor volumes of individual tumor bearing animals,[2]; [13],0 mm^3 and 4939 mm^3 and 7301 mm^3
same,Percentage cytotoxicity,[3]; 1nM,29.5 ± 1.0%
same,Percentage cytotoxicity,[3]; 10 nM,39.5 ± 3.4%
same,Percentage cytotoxicity,[3]; 1µM,19.5 ± 3.3%
same,Percentage cytotoxicity,[3]; 100n M,38.5 ± 2.2%
same,Percentage cytotoxicity,[4]; 1nM,19.0 ± 2.2%
same,Percentage cytotoxicity,[4]; 10 nM,28.6 ± 4.2%
same,Percentage cytotoxicity,[4]; 1µM,19.8 ± 5.5%
same,Percentage cytotoxicity,[4]; 100n M,25.9 ± 2.6%
same,Percentage cytotoxicity,[5]; 1nM,29.8 ± 1.2%
same,Percentage cytotoxicity,[5]; 10 nM,25.0 ± 4.6%
same,Percentage cytotoxicity,[5]; 1µM,17.9 ± 1.3%
same,Percentage cytotoxicity,[5]; 100n M,19.4 ± 5.2%
same,Percentage cytotoxicity,[6]; 1nM,13.9 ± 3.9%
same,Percentage cytotoxicity,[6]; 10 nM,23.9 ± 1.3%
same,Percentage cytotoxicity,[6]; 1µM,14.9 ± 1.6%
same,Percentage cytotoxicity,[6]; 100n M,15.9 ± 2.9%
same,Percentage cytotoxicity,[7]; 1nM,14.6 ± 4.5%
same,Percentage cytotoxicity,[7]; 10 nM,17.5 ± 2.8%
same,Percentage cytotoxicity,[7]; 1µM,10.6 ± 1.4%
same,Percentage cytotoxicity,[7]; 100n M,11.8±3.2%
same,Percentage cytotoxicity,[8]; 1nM,44.2 ± 3.5%
same,Percentage cytotoxicity,[8]; 10 nM,45.0 ± 2.4%
same,Percentage cytotoxicity,[8]; 1µM,28.9 ± 1.2%
same,Percentage cytotoxicity,[8]; 100n M,42.4 ± 1.4%
same,Percentage cytotoxicity,[9]; 1nM,15 ± 1.5%
same,Percentage cytotoxicity,[9]; 10 nM,11 ± 0.8%
same,Percentage cytotoxicity,[9]; 1µM,13 ± 2.3%
same,Percentage cytotoxicity,[9]; 100n M,13 ± 1.3%
